{
  "source": "patent US20210002301A1",
  "about": "“NOVEL ISOTHIAZOLO-AZEPINONE BICYCLES, PROCESSES FOR THEIR PREPARATION AND THEIR USE AS HERBICIDES AND/OR PLANT GROWTH REGULATORS” (Bayer Aktiengesellschaft, priority 2017, published 2021)",
  "conditions_in_all_cases": "Dosage 320",
  "key": {"[1]": {"system": "ALOMY", "assay": "Post-emergence herbicidal test", "assay_type": "in vivo, Alopecurus myosuroides"}, "[2]": {"system": "ECHCG", "assay": "Post-emergence herbicidal test", "assay_type": "in vivo, Echinochloa crus-galli"}, "[3]": {"system": "SETVI", "assay": "Post-emergence herbicidal test", "assay_type": "in vivo, Setaria viridis"}, "[4]": {"system": "ABUTH", "assay": "Post-emergence herbicidal test", "assay_type": "in vivo, Abutilon theophrasti"}, "[5]": {"system": "AMARE", "assay": "Post-emergence herbicidal test", "assay_type": "in vivo, Amaranthus retroflexus"}, "[6]": {"system": "PHBPU", "assay": "Post-emergence herbicidal test", "assay_type": "in vivo, Pharbitis purpurea"}, "[7]": {"system": "POLCO", "assay": "Post-emergence herbicidal test", "assay_type": "in vivo, Polygonum convolvulus"}, "[8]": {"system": "STEME", "assay": "Post-emergence herbicidal test", "assay_type": "in vivo, Stellaria media"}, "[9]": {"system": "VIOTR", "assay": "Post-emergence herbicidal test", "assay_type": "in vivo, Viola tricolor"}, "[10]": {"system": "VERPE", "assay": "Post-emergence herbicidal test", "assay_type": "in vivo, Veronica persica"}, "[11]": {"system": "ALOMY", "assay": "Pre-emergence herbicidal test", "assay_type": "in vivo, Alopecurus myosuroides"}, "[12]": {"system": "ECHCG", "assay": "Pre-emergence herbicidal test", "assay_type": "in vivo, Echinochloa crus-galli"}, "[13]": {"system": "LOLRI", "assay": "Pre-emergence herbicidal test", "assay_type": "in vivo"}, "[14]": {"system": "SETVI", "assay": "Pre-emergence herbicidal test", "assay_type": "in vivo, Setaria viridis"}, "[15]": {"system": "ABUTH", "assay": "Pre-emergence herbicidal test", "assay_type": "in vivo, Abutilon theophrasti"}, "[16]": {"system": "AMARE", "assay": "Pre-emergence herbicidal test", "assay_type": "in vivo, Amaranthus retroflexus"}, "[17]": {"system": "MATIN", "assay": "Pre-emergence herbicidal test", "assay_type": "in vivo, Matricaria inodora"}, "[18]": {"system": "PHBPU", "assay": "Pre-emergence herbicidal test", "assay_type": "in vivo, Pharbitis purpurea"}, "[19]": {"system": "POLCO", "assay": "Pre-emergence herbicidal test", "assay_type": "in vivo, Polygonum convolvulus"}, "[20]": {"system": "STEME", "assay": "Pre-emergence herbicidal test", "assay_type": "in vivo, Stellaria media"}, "[21]": {"system": "VIOTR", "assay": "Pre-emergence herbicidal test", "assay_type": "in vivo, Viola tricolor"}, "[22]": {"system": "VERPE", "assay": "Pre-emergence herbicidal test", "assay_type": "in vivo, Veronica persica"}, "[23]": {"system": "HORMU", "assay": "Pre-emergence herbicidal test", "assay_type": "in vivo"}},
  "data": [
    {"compound": "Nc1nsc2c1C=CCN(CC1CCCCC1)C2=O", "note": "[Example I-04, 3-amino-7-(cyclohexylmethyl)-6H-isothiazolo[5,4-c]azepin-8-one]", "values": [
      {"measurement": "ALOMY", "setting": "[1]", "result": 100},
      {"measurement": "ECHCG", "setting": "[2]", "result": 100},
      {"measurement": "SETVI", "setting": "[3]", "result": 90},
      {"measurement": "ABUTH", "setting": "[4]", "result": 100},
      {"measurement": "AMARE", "setting": "[5]", "result": 100},
      {"measurement": "PHBPU", "setting": "[6]", "result": 100},
      {"measurement": "POLCO", "setting": "[7]", "result": 100},
      {"measurement": "STEME", "setting": "[8]", "result": 100},
      {"measurement": "VIOTR", "setting": "[9]", "result": 100},
      {"measurement": "VERPE", "setting": "[10]", "result": 90},
      {"measurement": "ALOMY", "setting": "[11]", "result": 100},
      {"measurement": "ECHCG", "setting": "[12]", "result": 100},
      {"measurement": "LOLRI", "setting": "[13]", "result": 100},
      {"measurement": "SETVI", "setting": "[14]", "result": 100},
      {"measurement": "ABUTH", "setting": "[15]", "result": 100},
      {"measurement": "AMARE", "setting": "[16]", "result": 100},
      {"measurement": "MATIN", "setting": "[17]", "result": 100},
      {"measurement": "PHBPU", "setting": "[18]", "result": 100},
      {"measurement": "POLCO", "setting": "[19]", "result": 100},
      {"measurement": "STEME", "setting": "[20]", "result": 100},
      {"measurement": "VIOTR", "setting": "[21]", "result": 100},
      {"measurement": "VERPE", "setting": "[22]", "result": 100},
      {"measurement": "HORMU", "setting": "[23]", "result": 90}
    ]},
    {"compound": "O=C(Nc1nsc2c1C=CCN(C1CCCCC1)C2=O)C(F)F", "note": "[Example I-25]", "values": [
      {"measurement": "ALOMY", "setting": "[1]", "result": 100},
      {"measurement": "ECHCG", "setting": "[2]", "result": 100},
      {"measurement": "SETVI", "setting": "[3]", "result": 100},
      {"measurement": "ABUTH", "setting": "[4]", "result": 100},
      {"measurement": "AMARE", "setting": "[5]", "result": 100},
      {"measurement": "PHBPU", "setting": "[6]", "result": 100},
      {"measurement": "POLCO", "setting": "[7]", "result": 100},
      {"measurement": "STEME", "setting": "[8]", "result": 100},
      {"measurement": "VIOTR", "setting": "[9]", "result": 100},
      {"measurement": "VERPE", "setting": "[10]", "result": 90},
      {"measurement": "ALOMY", "setting": "[11]", "result": 100},
      {"measurement": "ECHCG", "setting": "[12]", "result": 100},
      {"measurement": "SETVI", "setting": "[14]", "result": 100},
      {"measurement": "ABUTH", "setting": "[15]", "result": 100},
      {"measurement": "AMARE", "setting": "[16]", "result": 100},
      {"measurement": "PHBPU", "setting": "[18]", "result": 100},
      {"measurement": "POLCO", "setting": "[19]", "result": 100},
      {"measurement": "STEME", "setting": "[20]", "result": 100},
      {"measurement": "VIOTR", "setting": "[21]", "result": 100},
      {"measurement": "VERPE", "setting": "[22]", "result": 100}
    ]},
    {"compound": "O=C1c2snc(NC(=O)C(F)(F)C(F)(F)F)c2C=CCN1CC1CCCCC1", "note": "[Example I-61]", "values": [
      {"measurement": "ALOMY", "setting": "[1]", "result": 90},
      {"measurement": "ECHCG", "setting": "[2]", "result": 90},
      {"measurement": "SETVI", "setting": "[3]", "result": 80},
      {"measurement": "ABUTH", "setting": "[4]", "result": 80},
      {"measurement": "AMARE", "setting": "[5]", "result": 100},
      {"measurement": "PHBPU", "setting": "[6]", "result": 90},
      {"measurement": "POLCO", "setting": "[7]", "result": 100},
      {"measurement": "STEME", "setting": "[8]", "result": 100},
      {"measurement": "VIOTR", "setting": "[9]", "result": 100},
      {"measurement": "VERPE", "setting": "[10]", "result": 90},
      {"measurement": "ALOMY", "setting": "[11]", "result": 90},
      {"measurement": "ECHCG", "setting": "[12]", "result": 100},
      {"measurement": "LOLRI", "setting": "[13]", "result": 100},
      {"measurement": "SETVI", "setting": "[14]", "result": 100},
      {"measurement": "ABUTH", "setting": "[15]", "result": 100},
      {"measurement": "AMARE", "setting": "[16]", "result": 100},
      {"measurement": "MATIN", "setting": "[17]", "result": 100},
      {"measurement": "PHBPU", "setting": "[18]", "result": 100},
      {"measurement": "POLCO", "setting": "[19]", "result": 100},
      {"measurement": "STEME", "setting": "[20]", "result": 100},
      {"measurement": "VIOTR", "setting": "[21]", "result": 100},
      {"measurement": "VERPE", "setting": "[22]", "result": 100},
      {"measurement": "HORMU", "setting": "[23]", "result": 100}
    ]}
  ]
}
